The text below walks through data of patent publication US20240327408A1, “COMPOUNDS CONTAINING TETRAHYDRONAPHTHYRIDINONE OR TETRAHYDROPYRIDOPYRIMIDINONE SKELETON, PREPARATION METHOD THEREFOR AND PHARMACEUTICAL USE THEREOF” (CHINA PHARMACEUTICAL UNIVERSITY, priority 2021, published 2024).

One experiment relates to MV4; 11 cells. Put plainly: inhibiting the growth of MV4; 11 cells. Format: cell-based.
Experiment [1] has as its system xenograft solid tumor models such as colon cancer, breast cancer, and brain tumors. Particulars: Oncotarget 2016, 7, 74380-74392; cited from earlier work.
For a further experiment, the target named is T1, hClpP (Homo sapiens, UniProt Q16740).
T1 construct: made in house
T1 sequence (Q16740 57-277): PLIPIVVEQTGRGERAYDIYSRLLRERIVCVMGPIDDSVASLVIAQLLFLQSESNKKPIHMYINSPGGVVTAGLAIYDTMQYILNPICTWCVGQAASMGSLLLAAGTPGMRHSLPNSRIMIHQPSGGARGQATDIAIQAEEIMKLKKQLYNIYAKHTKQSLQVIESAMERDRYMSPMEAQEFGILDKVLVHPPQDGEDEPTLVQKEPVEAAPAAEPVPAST
Put plainly: activating ClpP hydrolysis of FITC-casein (fluorescence kinetic detection). It counts as biochemical. Conditions: hClpP 1 μM, FITC-Casein 4 μM, 37° C. The procedure, abridged: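 hClpP at 1 μM final preincubated with compounds (assay-buffer dilutions 200 μM–2 nM, before mixing) 30 min at 37 °C, then 4 μM final FITC-casein added. Fluorescence read kinetically at 37 °C every 1 min for 15 min, duplicate wells.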

Like-named read-outs stand apart in the source and are kept apart here. Some results are limits rather than exact numbers.

One may read the IC50 as the midpoint of a concentration-inhibition curve. As to `Cc1ccccc1CN1C(=O)C2=C(CCN(Cc3ccccc3)C2)N2CCN=C12` [ONC201, reference compound], in the experiment with MV4; 11 cells (Homo sapiens), the half-inhibitory concentration (IC50) lay within 100 to 10000 nM. Moreover, in experiment [1], the “tumor regression in xenograft solid tumor models” value is on record as “cause tumor regression”.

Broadly, the EC50 is the midpoint of the concentration-response curve. Consider `CCc1ccc(Cn2c(=O)c3c(n4ccnc24)CCN(Cc2cccc(C#N)c2)C3)cc1` [Compound I-141, 7-(3-cyanobenzyl)-4-(4-ethylbenzyl)-6,7,8,9-tetrahydroimidazo[1,2-a]pyrido[3,4-e]pyrimidine-5(4H)-one], for which the concentration giving a half-maximal response (EC50) at hClpP was less than 1000 nM. The compound further showed an IC50 with MV4; 11 cells (Homo sapiens) of less than 1000 nM.

As to `O=c1c2c(c3cccnc3n1CC1CCC1)CCN(Cc1ccccc1)C2` [Compound I-37, 3-benzyl-6-(cyclobutylmethyl)-2,3,4,6-tetrahydropyrido[3,4-c][1,8]naphthyridine-5-(1H)-one], the EC50 at hClpP was in the range of 10000 to 100000 nM. Moreover, the concentration for half-maximal inhibition (IC50) with MV4; 11 cells (Homo sapiens) is 1000 to 10000 nM.

In turn, `O=c1c2c(c3cccnc3n1Cc1ccc(Cl)cc1)CCN(Cc1cccc(Cl)c1)C2` [Compound I-75, 3-(3-chlorobenzyl)-6-(4-chlorobenzyl)-2,3,4,6-tetrahydropyrido[3,4-c][1,8]naphthyridine-5-(1H)-one] displayed an EC50 at hClpP of less than 1000 nM. In addition, the 50% inhibitory concentration (IC50) with MV4; 11 cells (Homo sapiens) is less than 1000 nM.

On to `Cc1cccc(CN2CCc3c(c(=O)n(Cc4ccc(Cl)cc4)c4nccn34)C2)c1` [Compound I-120, 7-(3-methylbenzyl)-4-(4-chlorobenzyl)-6,7,8,9-tetrahydroimidazo[1,2-a]pyrido[3,4-e]pyrimidine-5(4H)-one], for which the concentration for a half-maximal effect (EC50) on hClpP is less than 1000 nM. In the experiment on MV4; 11 cells (Homo sapiens), the IC50 was less than 1000 nM.

On to `O=c1c2c(c3cccnc3n1Cc1ccc(C(F)(F)F)cc1)CCN(Cc1ccccc1)C2` [Compound I-70, 3-benzyl-6-(4-(trifluoromethyl)benzyl)-2,3,4,6-tetrahydropyrido[3,4-c][1,8]naphthyridine-5-(1H)-one], for which the concentration for a half-maximal effect (EC50) on hClpP is less than 1000 nM. Besides, in the experiment on MV4; 11 cells (Homo sapiens), the IC50 is less than 1000 nM.

In turn, `Cc1cccc(CN2CCc3c(c(=O)n(Cc4ccc(C(F)(F)F)cc4)c4nccn34)C2)c1` [Compound I-130, 7-(3-methylbenzyl)-4-(4-trifluoromethylbenzyl)-6,7,8,9-tetrahydroimidazo[1,2-a]pyrido[3,4-e]pyrimidine-5(4H)-one] registered a concentration for a half-maximal effect (EC50) on hClpP of less than 1000 nM. For the same compound, in the experiment on MV4; 11 cells (Homo sapiens), the concentration for half-maximal inhibition (IC50) was less than 1000 nM.

Regarding `CCc1ccc(CN2CCc3c(c(=O)n(Cc4ccccc4)c4ncccc34)C2)cc1` [Compound I-22, 6-benzyl-3-(4-ethylbenzyl)-2,3,4,6-tetrahydropyrido[3,4-c][1,8]naphthyridine-5-(1H)-one], the 50% effective concentration (EC50) on hClpP was 1000 to 10000 nM. The same compound gave an IC50 in the experiment with MV4; 11 cells (Homo sapiens) of less than 1000 nM.

The compound `Cn1nccc1Cn1c(=O)c2c(c3cccnc31)CCN(Cc1ccccc1)C2` [Compound I-59, 3-benzyl-6-((1-methyl-1H-pyrazol-5-yl)methyl)-2,3,4,6-tetrahydropyrido[3,4-c][1,8]naphthyridine-5-(1H)-one] came in with a half-maximal effective concentration (EC50) on hClpP of 10000 to 100000 nM. For the same compound, in the experiment with MV4; 11 cells (Homo sapiens), the 50% inhibitory concentration (IC50) lay in the range of 1000 to 10000 nM.

Turning to `O=c1c2c(c3cccnc3n1Cc1ccccc1)CCN(Cc1ccccc1)C2` [Compound I-5, 3,6-dibenzyl-2,3,4,6-tetrahydropyrido[3,4-c][1,8]naphthyridine-5-(1H)-one], the concentration for a half-maximal effect (EC50) at hClpP was in the range of 1000 to 10000 nM. Further, the IC50 in the experiment with MV4; 11 cells (Homo sapiens) is less than 1000 nM.

The compound `O=c1c2c(n3cccc3n1Cc1ccc(C(F)(F)F)cc1)CCN(Cc1ccccc1)C2` [Compound I-168, 3-benzyl-6-(4-trifluoromethylbenzyl)-1,2,3,4-tetrahydropyrido[3,4-e]pyrrolo[1,2-a]pyrimidine-5(6H)-one] returned a concentration giving a half-maximal response (EC50) at hClpP of less than 1000 nM. In the experiment on MV4; 11 cells (Homo sapiens), this compound registered an IC50 of less than 1000 nM.

For `Cc1noc(C)c1CN1CCc2c(c(=O)n(Cc3ccccc3)c3ncccc23)C1` [Compound I-34, 6-benzyl-3-((3,5-dimethylisoxazol-4-yl)methyl)-2,3,4,6-tetrahydropyrido[3,4-c][1,8]naphthyridine-5-(1H)-one], on hClpP, the concentration giving a half-maximal response (EC50) fell in the range of 10000 to 100000 nM. Besides, the concentration for half-maximal inhibition (IC50) with MV4; 11 cells (Homo sapiens) was in the range of 1000 to 10000 nM.

The compound `N#Cc1cccc(CN2CCc3c(c(=O)n(Cc4ccccc4)c4ccnn34)C2)c1` [Compound I-157, 4-benzyl-7-(3-cyanobenzyl)-6,7,8,9-tetrahydropyrazolo[1,5-a]pyrido[3,4-e]pyrimidine-5(4H)-one] came in with an EC50 at hClpP of 1000 to 10000 nM. The compound also returned a half-inhibitory concentration (IC50) with MV4; 11 cells (Homo sapiens) of 1000 to 10000 nM.

As to `O=c1c2c(n3ccnc3n1Cc1ccc(C(F)(F)F)cc1)CCN(Cc1ccccc1)C2` [Compound I-127, 7-benzyl-4-(4-trifluoromethylbenzyl)-6,7,8,9-tetrahydroimidazo[1,2-a]pyrido[3,4-e]pyrimidine-5(4H)-one], the half-maximal effective concentration (EC50) on hClpP is less than 1000 nM. Besides, the half-inhibitory concentration (IC50) with MV4; 11 cells (Homo sapiens) was less than 1000 nM.

Compound `Cc1ccccc1Cn1c(=O)c2c(c3cccnc31)CCN(Cc1ccccc1)C2` [Compound I-43, 3-benzyl-6-(2-methylbenzyl)-2,3,4,6-tetrahydropyrido[3,4-c][1,8]naphthyridine-5-(1H)-one] came in with an EC50 at hClpP of 1000 to 10000 nM. For the same compound, in the experiment with MV4; 11 cells (Homo sapiens), the IC50 was less than 1000 nM.

Consider `COc1ccccc1Cn1c(=O)c2c(c3cccnc31)CCN(Cc1ccccc1)C2` [Compound I-45, 3-benzyl-6-(2-methoxybenzyl)-2,3,4,6-tetrahydropyrido[3,4-c][1,8]naphthyridine-5-(1H)-one], for which the EC50 at hClpP lay in the range of 1000 to 10000 nM. In the experiment with MV4; 11 cells (Homo sapiens), the IC50 was less than 1000 nM.

With `O=c1c2c(c3cccnc3n1CC1CC1)CCN(Cc1ccccc1)C2` [Compound I-36, 3-benzyl-6-(cyclopropylmethyl)-2,3,4,6-tetrahydropyrido[3,4-c][1,8]naphthyridine-5-(1H)-one], the concentration giving a half-maximal response (EC50) on hClpP was in the range of 10000 to 100000 nM. Also, in the experiment with MV4; 11 cells (Homo sapiens), the 50% inhibitory concentration (IC50) fell in the range of 1000 to 10000 nM.

At hClpP, `O=c1c2c(c3cccnc3n1Cc1cc(Cl)ccn1)CCN(Cc1ccccc1)C2` [Compound I-64, 3-benzyl-6-((4-chloropyridin-2-yl)methyl)-2,3,4,6-tetrahydropyrido[3,4-c][1,8]naphthyridine-5-(1H)-one] gave a half-maximal effective concentration (EC50) of 10000 to 100000 nM. The IC50 in the experiment on MV4; 11 cells was in the range of 1000 to 10000 nM.
